Data: patent publication US20210254138A1, “SIALIC ACID TRANSPORTER PROTEINS AS BIOMARKERS AND DRUG TARGETS” (Quadram Institute Bioscience, priority 2018, published 2021)

Experiments:
[1] = system: R. gnavus ATCC 29149 nan deletion mutants; assay: Growth on sole carbon source, nan deletion mutants; format: cell-based; conditions: 11.1 mM in YCFA, anaerobic
Source text: R. gnavus mutants were generated using the ClosTron methodology (Heap et al., 2010), which inserts an erythromycin resistance cassette into the gene of interest. Target sites were identified using the Pertuka method (Perutka et al., 2004). The re-targeted introns were synthesised and ligated into the pMTL007C-E2 vector by ATUM (MenloPark, USA). The plasmids were then transformed into E. coli CA434 using the heat-shock protocol, and the recombinant clones selected for chloramphenicol resistance. Recombinant E. coli cells were grown overnight in 10 ml LB, 1 ml of the overnight culture was pelleted and washed with PBS. The E. coli cell pellet was resuspended in 200 μl of an R. gnavus overnight culture and the cell suspension spotted onto a non-selective BHI-YH plate. […]
(§1) The ability of the mutants to utilise sialic acids and sialoconjugates was assessed by supplementing YCFA with 11.1 mM of 2,7-anhydro-Neu5Ac, 3'SL, glucose or Neu5Ac in triplicate 200 μl cultures in 96-well microtiter plates. The OD595 nm was measured hourly for 10 h in an infinite F50 plate reader (Tecan, UK) housed within an anaerobic cabinet connected to Magellan V7.0 software.

[2] = target: T1, E. coli sialic acid aldolase (EcNanA) (Escherichia coli, UniProt P0A6L4); assay: Sialic acid aldolase activity assay coupled to lactate dehydrogenase, EcNanA; format: biochemical; conditions: 10 mM sialic acid, 37° C., pH 7.0, A340 nm
T1 construct: purchased Carbosynth, UK CAS: 9027-60-5 (catalogue number not given)
T1 sequence (P0A6L4 whole entry): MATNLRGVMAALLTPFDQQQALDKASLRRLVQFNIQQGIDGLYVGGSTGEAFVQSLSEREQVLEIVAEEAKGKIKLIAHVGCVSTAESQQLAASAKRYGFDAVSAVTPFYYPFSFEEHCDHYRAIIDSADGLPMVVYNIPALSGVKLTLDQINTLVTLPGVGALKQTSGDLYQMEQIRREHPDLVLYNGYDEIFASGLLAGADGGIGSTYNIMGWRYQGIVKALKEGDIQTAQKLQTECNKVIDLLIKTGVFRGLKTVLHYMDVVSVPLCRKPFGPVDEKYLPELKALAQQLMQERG
Procedure: Aldolase cleavage was measured by monitoring the decrease in absorbance at 340 nm (A340 nm) as NADH is converted to NAD by lactate dehydrogenase in a coupled reaction where pyruvate is released from sialic acid by the aldolase. Reactions were performed in a 100 μl volume with final concentrations of 150 μM NADH (Sigma, St Louis, USA), 0.5 U LDH (Sigma, St Louis, USA), 10 mM sialic acid (Neu5Ac or 2,7-anhydro-Neu5Ac) and 1.5 μg purified RgNanA or EcNanA (E. coli aldolase CAS: 9027-60-5, Carbosynth, UK) in 50 mM Na-phosphate buffer (pH 7.0). The reactions were performed at 37° C. and monitored using FLUOstar OPTIMA (BMG LABTECH). For kinetics experiments, the sialic acid concentration was varied at 20, 10, 5, 4, 2, 1, 0.4, 0.2, 0.1 mM and the initial rate of reaction determined for each concentration in triplicate before analysis was performed by fitting the data to a Michaelis-Menten using Graph Pad Prism (V 5.03). […]
The first step of sialic acid metabolism is the conversion of sialic acid to ManNAc and pyruvate catalysed by a sialic acid aldolase (NanA). […] The substrate specificity of RgNanA was determined using a coupled activity assay where pyruvate released during the conversion of sialic acid to ManNAc is converted to lactate by a lactate dehydrogenase and the subsequent loss of absorbance at 340 nm measured as NADH is converted to NAD^+. […]

[3] = system: R. gnavus ATCC 29149 wild-type; assay: Growth on sole carbon source, wild-type strain; format: cell-based; conditions: 11.1 mM in YCFA, anaerobic
Procedure: R. gnavus ATCC 29149 was routinely grown in an anaerobic cabinet (Don Whitley, Shipley, UK) in BHI-YH as previously described (Crost et al., 2013). Growth on single carbon sources utilized anaerobic basal YCFA medium (Duncan et al., 2002) supplemented with 11.1 mM of specific mono- or oligosaccharides (2,7-anhydro-Neu5Ac, 3'Sialyllactose (3'SL) or glucose). The bacteria were grown to late exponential phase for RNA extraction, the culture was performed in 14 ml tubes. Growth was determined spectrophotometrically by monitoring changes in optical density at […] compared to the same medium without bacterium (ΔOD595 nm) hourly for 10 hours.
as §1

CC(=O)N[C@H]1C2OC(C(=O)O)(C[C@@H]1O)O[C@@H]2[C@H](O)CO (stereo partly shown) [2,7-anhydro-Neu5Ac]
growth on substrate as sole carbon source [1]: no growth was detected | aldolase activity against substrate [2]: neither enzyme showed activity | utilisation as a sole carbon source (growth) [3]: able to utilise

CC(=O)N[C@H]1[C@H]([C@H](O)[C@H](O)CO)OC(O)(C(=O)O)C[C@@H]1O (stereo partly shown) [Neu5Ac, N-acetylneuraminic acid]
aldolase activity against substrate [2]: showed activity
